Entries after “also recorded” stand apart in the source; their conditions may differ. Square brackets hold non-standard residues; d marks the D form. Side chains are listed from the residue outwards. Ends that are not written are not given here. maleimide = maleimide: 4-arm PEG5k maleimide reacting with the C-terminal Cys thiol
Assays:
HUVECs [1] = experiment: Co-culture of TCs and HUVECs, TC-induced HUVECs necroptosis; type: cell-based, human; conditions: co-culture with GFP-B16F10, GFP-SGC-996, GFP-LLC1 for 24 h; peptides 1 × 10^–6 M; Hoechst 33342/EthD-III staining; n = 3
Experimental: For co‐culture experiment, HUVECs (1 × 10^5) were cultured for 24 h in six‐well plates and 5 × 10^4 GFP‐expressing TCs (GFP‐B16F10, GFP‐SGC‐996, and GFP‐LLC1) were added alone or in the presence of the indicated substances onto the HUVECs monolayer and cultured for 24 h: peptides (1 × 10^–6 M), Nec‐1 (30 × 10^–6 M), and zVAD (100 × 10^–6 M). Then, cells were stained with Hoechst 33342 and EthD‐III, and observed by fluorescence microscope. Cell number was determined by counting Hoechst‐33342‐positive cells, and cell death was determined by counting EthD‐III‐positive nuclei.^[ ^9 ^]

[2] = DAPI staining of lung sections after injection of FITC-labeled ligand; type: in vivo; conditions: FITC-labeled ligand intravenously, lungs isolated 30 min later, confocal
Experimental: FITC‐labeled AHP‐DRI‐12 and PEG‐tAHP‐DRI were injected intravenously and 30 min later, lungs were isolated to prepare frozen sections. The frozen sections were stained with DAPI. The representative images were taken on a confocal microscope.

[3] = system: TCs over HUVECs monolayer; experiment: Transendothelial migration of TCs over HUVEC monolayer; type: cell-based, human; conditions: AHP-DRI-12 and PEG-tAHP-DRI 1 × 10^−6 M (AHP-DRI-12), Nec-1 30 × 10^–6 M, zVAD 100 × 10^–6 M; 48 h; compared with control; n = 3
Experimental: HUVECs (1 × 10^5) in DMEM were added into 24‐well plate transwell upper chambers and the medium was changed every 2 days. Using the EVOM resistance tester, the transendothelial resistance was measured daily. When the TEER resistance value was >200 Ωcm^2, the cells grew into a monolayer of tight connection. 2 × 10^5 GFP‐TCs were added into upper chambers. One milliliter DMEM containing 10% FBS was added into lower chambers overnight. AHP‐DRI‐12 and PEG‐tAHP‐DRI (1 ×10^–6 M AHP‐DRI‐12), Nec‐1 (30 × 10^–6 M), and zVAD (100 × 10^–6 M) were added in upper chambers, respectively. After incubation for 48 h, cells in lower chambers were observed by fluorescence microscope.^[ ^56 ^]

[4] = Pharmacokinetic study after intravenous injection; type: in vivo; conditions: SD rats, FITC-labeled
Experimental: To investigate the pharmacokinetic profile of AHP‐DRI‐12 and PEG‐tAHP‐DRI, SD rats were intravenously injected with FITC‐labeled AHP‐DRI‐12 and PEG‐tAHP‐DRI and blood samples were collected at 0.5, 1, 2, 4, 6, 24, 30, 48, 54, and 72 h. The DR6‐targeting peptide level of blood samples was measured by a microplate reader.

[5] = system: B16F10, 4T1, and CT26 lung metastasis models; experiment: In vivo anti-metastasis assay, lung metastasis models; design: species or system mice
Experimental: 2 × 10^5 GFP‐B16F10 cells, 2 × 10^5 4T1, or 2 × 10^5 CT26 in 100 µL PBS were injected to the lateral tail vein of mice, respectively. The mice were intravenously injected with saline, AHP‐DRI‐12, and PEG‐tAHP‐DRI (0.2 µg g^–1 AHP‐DRI‐12) shortly before and 24 h after injection of B16F10. Each formulation was administered every 2 days for a total of seven times. After 15 days, mice were sacrificed and perfused with PBS and 4% paraformaldehyde. The hearts, livers, spleens, lungs, and kidneys were collected for H&E staining and immunohistochemistry analysis. Lung metastases were analyzed by quantitation of GFP and metastases nodes.

HUVECs [6] = experiment: MTT cytotoxicity assay; type: cell-based, human; conditions: up to 10 × 10^−6 M, 24, 48, 72 h, n = 3
Experimental: To evaluate the cytotoxicity of DR6‐targeting peptides, MTT assay was conducted. Briefly, 4 × 10^3 HUVECs were added in 96‐well plates and grown overnight before incubating with AHP‐DRI‐12 and PEG‐tAHP‐DRI (0.1 × 10^–6, 1.0 × 10^–6, 10 ×10^–6 M AHP‐DRI‐12). After incubating for 24, 48, and 72 h, 100 µL of 0.5 mg mL^–1 MTT was added to each well, and the plates were incubated at 37 °C for 4 h. After the removal of the supernatant, the precipitate was dissolved in 150 µL dimethyl sulfoxide, and the absorbance was measured at 490 nm using a microplate reader.

[7] = system: RIPK1, RIPK3, MLKL and their phosphorylated states in HUVECs; experiment: Western blot of necroptosis pathway proteins; type: cell-based, human; conditions: 24 h, 0.1, 1.0, 10 × 10^–6 M AHP-DRI-12
Experimental: Western blot assay was conducted to examine the expression level of RIPK1, RIPK3, MLKL, and their phosphorylated states that were downstream protein of DR6. Briefly, 5 × 10^5 HUVECs were added in six‐well plates and grown overnight. Next day, HUVECs were treated with TSZ, AHP‐DRI‐12, and PEG‐tAHP‐DRI (0.1 × 10^–6, 1.0 × 10^–6, 10 × 10^–6 M AHP‐DRI‐12), respectively. After incubating for 24 h, HUVECs were washed with PBS, harvested, and mixed with 150 µL cell lysate buffer/well (Beyotime, China). Protein samples were collected after incubation at 4 ℃ for 30 min. Protein samples were centrifuged at 4 °C and 12 000 rpm for 10 min, and the supernatant was collected as samples. Each sample was then separated by 12% SDS–PAGE, followed by transferring to polyvinylidene difluoride membranes. Finally, samples were incubated with antibodies. HRP‐labeled secondary antibodies were added and measured using an imaging system.

hERG potassium channel = hERG potassium channel (Homo sapiens, UniProt Q12809); experiment: Whole-cell patch clamp recording of hERG current; type: cell-based; conditions: cisapride as positive control
Sequence of hERG potassium channel (Q12809 whole entry): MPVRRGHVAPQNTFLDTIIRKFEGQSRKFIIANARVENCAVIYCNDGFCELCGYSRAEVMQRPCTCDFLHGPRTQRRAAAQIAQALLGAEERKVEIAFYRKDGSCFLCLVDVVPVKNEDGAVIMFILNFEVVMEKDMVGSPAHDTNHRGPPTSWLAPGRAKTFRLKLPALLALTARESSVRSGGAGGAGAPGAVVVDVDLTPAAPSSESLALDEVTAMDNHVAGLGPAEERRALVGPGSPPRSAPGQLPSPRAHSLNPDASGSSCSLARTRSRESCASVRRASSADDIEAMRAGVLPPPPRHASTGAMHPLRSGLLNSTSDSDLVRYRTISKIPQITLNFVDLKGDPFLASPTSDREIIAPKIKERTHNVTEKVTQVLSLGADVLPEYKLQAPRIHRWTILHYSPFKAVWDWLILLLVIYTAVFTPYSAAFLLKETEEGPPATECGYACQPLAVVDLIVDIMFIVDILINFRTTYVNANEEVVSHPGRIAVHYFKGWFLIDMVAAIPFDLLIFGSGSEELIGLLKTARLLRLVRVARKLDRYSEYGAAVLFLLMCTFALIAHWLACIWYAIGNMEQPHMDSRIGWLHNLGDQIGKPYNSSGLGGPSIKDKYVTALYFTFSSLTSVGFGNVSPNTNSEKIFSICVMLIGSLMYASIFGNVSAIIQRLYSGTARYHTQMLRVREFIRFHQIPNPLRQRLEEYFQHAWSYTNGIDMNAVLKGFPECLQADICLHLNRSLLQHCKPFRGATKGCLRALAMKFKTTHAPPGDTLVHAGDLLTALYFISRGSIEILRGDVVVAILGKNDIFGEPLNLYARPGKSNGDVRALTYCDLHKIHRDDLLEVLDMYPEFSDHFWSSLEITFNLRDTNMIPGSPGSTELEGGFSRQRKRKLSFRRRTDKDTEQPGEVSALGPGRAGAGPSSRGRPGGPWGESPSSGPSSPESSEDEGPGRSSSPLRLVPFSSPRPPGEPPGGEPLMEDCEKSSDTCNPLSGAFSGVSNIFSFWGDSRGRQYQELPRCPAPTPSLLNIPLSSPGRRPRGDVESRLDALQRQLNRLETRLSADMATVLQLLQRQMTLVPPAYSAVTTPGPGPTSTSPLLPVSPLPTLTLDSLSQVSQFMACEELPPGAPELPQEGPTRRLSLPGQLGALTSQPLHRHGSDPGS
Experimental: In addition, some common adverse effects suffered by frequently used medications were also evaluated. The whole‐cell patch clamp recording technique was used to record the whole‐cell hERG‐potassium to measure the cardiac toxicity of peptidomimetic agents on hERG potassium channel by utilizing cisapride as positive control (Figure 6E; Figure S10, Supporting Information). […] Meanwhile, the blood biochemical indexes of ligand‐treated mice sacrificed on day 2 or day 15 were tested to examine the influences of peptidomimetic agents to liver and kidney (Figure S11, Supporting Information).

[8] = B16F10 tumor-bearing mice, 15 days

Question: Which “inhibition of TCs-induced HUVECs necroptosis” value (HUVECs [1]) does the source give for “PEG-tAHP-DRI: tetra-(D-retro-inverso isomer of AHP-12) substitued 4-arm PEG5k ([dP][dT][dT][dA][dD][dI][dT]C([maleimide-4‑arm PEG5k]); also: four peptides on one 4-arm PEG5k)” here?
Answer: The value was “strongest potent inhibitory effect on HUVECs necroptosis; also recorded: much less amount of necroptotic HUVECs”.

Question: What about the “binding potency and proteolytic stability in vivo by FITC fluorescence on lung frozen sections” value [2] of the same substance?
Answer: Its value is “best proteolytic stability”.

Question: What about the TCs transendothelial migration [3] of the same substance?
Answer: The TCs transendothelial migration was “significantly attenuated TCs transendothelial migration”.

Question: What about the “half-life (T1/2)” value ([4]; blood samples 0.5-72 h, microplate reader, n = 3) of the same substance?
Answer: The value was 11.1 h.

Question: And the “area under the curve (AUC0-72)” value ([4]; compared with AHP-DRI-12)?
Answer: The value was “significantly larger”.

Question: And the “necroptosis in lungs, p-RIPK1 immunohistochemical analysis” value [5, 8]?
Answer: The value was “dramatic decrease of necroptosis in lungs”.

Question: And the “pulmonary vessel integrity, CD31 staining” value [5, 8]?
Answer: The value was “remained relatively intact and orderly”.

Question: What about the “expression level of GFP mRNA in lungs” value ([5]; GFP-B16F10 model, compared with vehicle-treated and AHP-DRI-12-treated mice, n = 6) of the same substance?
Answer: Its value is “less expression level of GFP mRNA in lungs”.

Question: What about the pulmonary metastasis nodules ([5]; intravenous, 0.2 µg g^–1 AHP-DRI-12, every 2 days, seven times, lungs after 15 days) of the same substance?
Answer: The pulmonary metastasis nodules was “least amount of pulmonary metastasis nodules”.

Question: And the “metastatic loci in lungs, H&E staining” value ([5]; intravenous, 0.2 µg g^–1 AHP-DRI-12, 15 days, n = 6)?
Answer: Its value is “less and smaller metastatic loci”.

Question: What about the HUVECs cell viability (HUVECs [6]) of the same substance?
Answer: The HUVECs cell viability was “remained essentially unchanged”.

Question: And the “native activation of necroptosis pathway (expression levels of p-RIPK1, p-RIPK3, p-MLKL)” value [7]?
Answer: Its value is “could not initialize necroptosis pathway”.

Question: And the “inhibitory effect on hERG channels” value (hERG potassium channel)?
Answer: Its value is “no significant inhibitory effect”.

From PMC8188212, “Multi‐Arm PEG/Peptidomimetic Conjugate Inhibitors of DR6/APP Interaction Block Hematogenous Tumor Cell Extravasation” (Advanced Science, 2021)
